The values that follow come from patent publication US11970731B2, “Enhancement of nucleic acid polymerization by aromatic compounds” (priority 2018, dated 2024).

Experiment [1] has as its target T1, C4552 DNA polymerase (Saccharolobus solfataricus, UniProt Q97W02, A155G/A42V/D156R/D292Y/D294N/E291S/E324K/E325K/E327K/E79L/G187P/G299W/I153V/I189F/I248T/I295S/K152A/K317Q/K321Q/K56Y/K78D/L293W/M76W/N188Y/P184Q/Q82W/Q83G/R300S/S297Y/S86E/T290K/T301W/V289W/V296Q).
T1 construct: made in house
The experiment can be described thus: Primer extension assays using three 100mer templates derived from HIV1, 2 and 3 genomes. The class given is biochemical, Sulfolobus solfataricus. As to conditions: 0.5 mM PEM; HIV1, HIV2, HIV3 100mer templates; 30 minutes at 23° C.; FIG. 9. As to the method:
PEM activity of compounds 9-11 was tested in primer extension assays using three 100mer templates, derived from the HIV1, 2, and 3 genomes. Primer extension reactions included the following reagents: 75 mM TrisCl, pH 8.44, 175 mM NH4OAc, 20% PEG8K, 5% NMS, 0.8 nmol PP-60.20, 0.6 mM MnCl2, 2.3 μg Tth single-strand binding protein (SSB), 0.5 M or 1 M urea, 200 pmol each XNTP, 1.1 pmol template, 1 pmol oligonucleotide primer, 1.2 μg purified recombinant C4552 DNA polymerase, and 0.5 mM PEM. 10 μL primer extension reactions were run for 30 minutes at 23° C. and reaction products were analyzed by gel electrophoresis.

For experiment [2], the target named is T2, C4760 DNA polymerase (a variant of DPO4) (Saccharolobus solfataricus, UniProt Q97W02, A155G/A42V/D156R/D292Y/D294N/E291S/E324K/E325K/E327K/E63R/E79L/G187P/G299W/I153V/I189F/I248T/I295S/K152A/K317Q/K321Q/K56Y/K78D/L293W/M76W/N188Y/P184Q/Q82W/Q83G/R300S/S297Y/S86E/T290K/T301W/V289W/V296Q).
T2 construct: made in house
The experiment in a line: Primer extension assays using the HIV2 100 mer template. Format: biochemical, Sulfolobus solfataricus. Here is the method:
PEM activity of compound 12 was tested in primer extension assays using the HIV2 100 mer template. Primer extension reactions included the following reagents: 50 mM TrisCl, 200 mM NH4OAc, 20% PEG8K, 5% NMS, 0.6 nmol PP-60.20, 0.6 mM MnCl2, 2.75 μg/μl Eco single-strand binding protein (SSB), 1 M urea, 50 pmol each XNTP, 1.1 pmol template, 1 pmol oligonucleotide primer, 1.2 μg/μl purified recombinant C4760 DNA polymerase (SEQ ID NO:2), and 0.5, 1, or 1.5 mM PEM. 10 μL primer extension reactions were run for 30 minutes at 23° C. and reaction products were analyzed by gel electrophoresis. […] Lanes 2-4 show primer extension products from reactions with a structurally related additive lacking robust PEM activity.
PEM activity of compounds 13 and 14 was tested in primer extension assays using the HIV2 100 mer template. Primer extension reactions included the following reagents: 50 mM TrisCl, 200 mM NH4OAc, 20% PEG8K, 5% NMS, 0.6 nmol PP-60.20, 0.6 mM MnCl2, 2.75 μg/μl Eco single-strand binding protein (SSB), 1 M urea, 50 pmol each XNTP, 1.1 pmol template, 1 pmol oligonucleotide primer, 1.2 μg/μl purified recombinant C4760 DNA polymerase (a variant of DPO4, see SEQ ID NO:2), and 0.5, 1, 1.52, or 2.5 mM PEM. 10 μL primer extension reactions were run for 30 minutes at 23° C. and reaction products were analyzed by gel electrophoresis. A representative gel showing primer extension products is presented in FIG. 11 (the position of the full length HIV2 100 mer is indicated by the arrow).
PEM activity of compounds 16, 17, and 18 and combinations thereof were tested in primer extension assays using the HIV2-derived 100mer template. Primer extension reactions included the following reagents: 50 mM TrisCl, 200 mM NH4OAc, 20% or 25% PEG8K, 5% NMS, 0.6 nmol PP-60.20, 0.6 mM MnCl2, 2 μg Kod single-strand binding protein (SSB), 1 M urea, 50 pmol each XNTP, 1 pmol template, 1 pmol oligonucleotide primer, 1.2 μg purified recombinant C4760 DNA polymerase (a variant of DPO4, see SEQ ID NO:2), and 0.5-2 mM PEM. 10 μL primer extension reactions were run for 30 minutes at 37° C. and reaction products were analyzed by gel electrophoresis. A representative gel showing primer extension products is presented in FIG. 13 (the position of a 100mer product is indicated by the arrow).

The test system of experiment [3] is DNA polymerase. The experiment can be described thus: Screen of PEMs for enhancement of XNTP polymerization (primer extension, gel electrophoresis). The class given is biochemical. The conditions noted are these: for DNA polymerase-mediated primer extension with XNTPs (length of extension products): FIG. 4 gel, 45 mer template, without PEM additive up to only around 14 XNTPs. Here is the method: A representative primer extension reaction may include the following reagents: 2 pmol primer, 2.2 pmol 45 mer oligonucleotide template, 50 pmol of each XNTP (XATP, XCTP, XGTP, and XTTP), 50 mM Tris HCl, pH 6.79, 200 mM NaCl, 20% PEG, 5% NMS, 0.5 nmol polyphosphate 60.19, 0.3 mM MnCl2, and 0.6 μg of purified recombinant DNA polymerase protein. Reactions may be run for 1 hr at 23° C. Reaction products (i.e., constrained Xpandomers) are treated to cleave the phosphoramidate bonds, thereby generating linearized Xpandomers. Reaction products may be analyzed using gel electrophoresis on 4-12% acrylamide gels to resolve and visualize Xpandomer products of different lengths. For the PEM screen described above, PEMs were typically tested in the micro to millimolar range.
Again, this PEM activity is specific for compound 2, as other unrelated aromatic compounds had no effect (lanes 2-7).

[4] abbreviates: 2 mM compound 16, 0.5, 1, 2, and 3 mM compound 17, Kod SSB, 30 minutes at 37° C., FIG. 13, comparator compound 14 (lane 1).
[5] abbreviates: 0.5, 1, 1.52, or 2.5 mM PEM, Eco SSB, 30 minutes at 23° C., FIG. 11, comparator compound 10 (lanes 1-4).

T2 sequence (Q97W02 other isoform, or with tags, fused parts or gaps with the stated changes): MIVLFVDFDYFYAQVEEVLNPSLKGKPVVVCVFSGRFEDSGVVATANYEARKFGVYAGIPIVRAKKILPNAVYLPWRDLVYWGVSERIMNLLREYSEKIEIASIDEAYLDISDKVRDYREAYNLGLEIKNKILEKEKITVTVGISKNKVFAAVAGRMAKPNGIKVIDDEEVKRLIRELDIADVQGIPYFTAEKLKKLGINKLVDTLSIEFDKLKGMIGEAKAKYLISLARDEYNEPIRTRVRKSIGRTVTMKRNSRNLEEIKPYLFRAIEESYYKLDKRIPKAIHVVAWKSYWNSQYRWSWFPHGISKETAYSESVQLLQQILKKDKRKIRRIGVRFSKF
T1 sequence (Q97W02 other isoform, or with tags, fused parts or gaps with the stated changes): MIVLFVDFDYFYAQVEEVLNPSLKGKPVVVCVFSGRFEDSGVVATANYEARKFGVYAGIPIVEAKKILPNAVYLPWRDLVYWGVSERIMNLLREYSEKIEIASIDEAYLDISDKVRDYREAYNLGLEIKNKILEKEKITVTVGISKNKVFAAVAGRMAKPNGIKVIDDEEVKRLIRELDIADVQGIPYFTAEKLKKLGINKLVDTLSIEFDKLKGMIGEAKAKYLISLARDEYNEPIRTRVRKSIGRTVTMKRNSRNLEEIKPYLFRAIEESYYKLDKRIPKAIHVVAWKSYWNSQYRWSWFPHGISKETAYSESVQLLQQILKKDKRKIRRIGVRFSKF

Turning to `COc1cc(-c2cn(-c3ccc(C(=O)O)c(O)c3)nn2)nc(-c2cn(-c3ccc(C(=O)O)c(O)c3)nn2)c1` [Compound 9, 4,4′-((4-methoxypyridine-2,6-diyl)bis(1H-1,2,3-triazole-4,1-diyl))bis(2-hydroxybenzoic acid)], in experiment [1], the “PEM activity: polymerization of XNTPs into Xpandomer copies of 100 mer templates” value is “enable XNTP polymerization at least as efficiently as compound 1”.
On to `COC(=O)c1cc(-c2cn(-c3ccc(C(=O)O)c(O)c3)nn2)nc(-c2cn(-c3ccc(C(=O)O)c(O)c3)nn2)c1` [Compound 16, 4,4′-((4-(methoxycarbonyl)pyridine-2,6-diyl)bis(1H-1,2,3-triazole-4,1-diyl))bis(2-hydroxybenzoic acid)], for which the “PEM activity: polymerization of XNTPs into Xpandomer copies of the 100 mer template” value (from here on “PEM activity … of the 100 mer template”) in experiment [2] (setting [4]) was “enable polymerization of XNTPs into lengthy Xpandomer copies of the 100 mer template in a manner comparable to that of compound 14”.
Consider `O=C(O)c1ccc(-n2cc(-c3cncc(-c4cn(-c5ccc(C(=O)O)c(O)c5)nn4)c3)nn2)cc1O` [Compound 2, 4,4′-(pyridine-3,5-diylbis(1H-1,2,3-triazole-4,1-diyl))bis(2-hydroxybenzoic acid)], for which, in experiment [3] (FIG. 5 gel, compound at various concentrations (lanes 8-10), without PEM additive modest activity), the “primer extension activity with XNTPs” value is recorded as “significantly enhances primer extension activity”.
Turning to `O=C(O)c1ccc(-n2cc(-c3ccc4[nH]c5ccc(-c6cn(-c7ccc(C(=O)O)c(O)c7)nn6)cc5c4c3)nn2)cc1O` [Compound 4, 4,4′-((9H-carbazole-3,6-diyl)bis(1H-1,2,3-triazole-4,1-diyl))bis(2-hydroxybenzoic acid)], the “DNA polymerase-mediated primer extension with XNTPs (length of extension products)” value in experiment [3] was “enables the polymerase to synthesize considerably longer extension products”.
In the case of `Cc1cc(-c2cn(-c3ccc(C(=O)O)c(O)c3)nn2)nc(-c2cn(-c3ccc(C(=O)O)c(O)c3)nn2)c1` [Compound 13, 4,4′-((4-methylpyridine-2,6-diyl)bis(1H-1,2,3-triazole-4,1-diyl))bis(2-hydroxybenzoic acid)], the “PEM activity … of the 100 mer template” value in experiment [2] (setting [5]) is listed as “enables polymerization of XNTPs into full length Xpandomer copies of the 100 mer template in a manner comparable to that of compound 10”.
Regarding `CCOC(=O)c1cc(-c2cn(-c3ccc(C(=O)O)c(O)c3)nn2)nc(-c2cn(-c3ccc(C(=O)O)c(O)c3)nn2)c1` [Compound 14, 4,4′-((4-(ethoxycarbonyl)pyridine-2,6-diyl)bis(1H-1,2,3-triazole-4,1-diyl))bis(2-hydroxybenzoic acid)], the “PEM activity … of the 100 mer template” value in experiment [2] (setting [5]) is “enables polymerization of XNTPs into full length Xpandomer copies of the 100 mer template in a manner comparable to that of compound 10”.
Turning to `O=C(O)c1ccc(-n2cc(-c3cc([N+](=O)[O-])cc(-c4cn(-c5ccc(C(=O)O)c(O)c5)nn4)n3)nn2)cc1O` [Compound 11, 4,4′-((4-nitropyridine-2,6-diyl)bis(1H-1,2,3-triazole-4,1-diyl))bis(2-hydroxybenzoic acid)], the “PEM activity: polymerization of XNTPs into Xpandomer copies of 100 mer templates” value in experiment [1] is reported as “enable XNTP polymerization at least as efficiently as compound 1”.
As for `O=C(O)c1ccc(-n2cc(-c3cccc(-c4cn(-c5ccc(C(=O)O)c(O)c5)nn4)c3)nn2)cc1O` [Compound 3, 4,4′-(1,3-phenylenebis(1H-1,2,3-triazole-4,1-diyl))bis(2-hydroxybenzoic acid)], the “DNA polymerase-mediated primer extension with XNTPs (length of extension products)” value in experiment [3] was “enables the polymerase to synthesize considerably longer extension products”.
For the molecule `CCNC(=O)c1cc(-c2cn(-c3ccc(C(=O)O)c(O)c3)nn2)nc(-c2cn(-c3ccc(C(=O)O)c(O)c3)nn2)c1` [Compound 17, 4,4′-((4-(ethylcarbamoyl)pyridine-2,6-diyl)bis(1H-1,2,3-triazole-4,1-diyl))bis(2-hydroxybenzoic acid)], in experiment [2] (setting [4]), the “PEM activity … of the 100 mer template” value is “enable polymerization of XNTPs into lengthy Xpandomer copies of the 100 mer template in a manner comparable to that of compound 14”.
Regarding `N#Cc1cc(-c2cn(-c3ccc(O)c(C(=O)O)c3)nn2)nc(-c2cn(-c3ccc(O)c(C(=O)O)c3)nn2)c1` [Compound 12, 5,5′-((4-cyanopyridine-2,6-diyl)bis(1H-1,2,3-triazole-4,1-diyl))bis(2-hydroxybenzoic acid)], the “PEM activity … of the 100 mer template” value in experiment [2] (0.5, 1, or 1.5 mM PEM, Eco SSB, 30 minutes at 23° C., FIG. 10, comparable to compound 10 (lane 1)) is “enables polymerization of XNTPs into full length Xpandomer copies of the 100 mer template”.
